Test results from US20260285897A1, “Neurosteroids and Prodrugs Thereof” (Emory University, priority 2023, published 2026).

Assays:
[1] = Aqueous stability assay in PBS (DPBS), HPLC; type: physicochemical; conditions: 1 mg/mL, room temperature, parent remaining at 2 hr, read-out: PBS (% REM at 2 hr)
Description: Aqueous stability experiments were performed on an Agilent 1100 HPLC equipped with an Agilent 1200 autosampler. HPLC grade solvents were exclusively used during analysis, with acetonitrile being purchased from Sigma Aldrich, and water and formic acid provided by Fisher Scientific. Sample solutions were prepared in 2.0 mL large opening RAM™ vials from Chemglass using DPBS as the aqueous medium.
Tested compounds were dissolved in DPBS at a standard concentration of 1 mg/mL. All mixtures were then sonicated for 5 min or stirred until complete dissolution was achieved. Any precipitate observed in sample solutions was filtered with a PTFE syringe filter prior to analysis. Immediately after sample preparation, injection by the HPLC autosampler was performed, which was recorded as the initial time point (t=0 min). Samples were then kept in the autosampler at room temperature and injected at designated intervals without additional filtration or sample modification. Next, the area of the parent peak in each chromatogram was determined by automated integration in the Agilent ChemStation software. Pseudo first-order half-lives were then ascertained by calculating the percent of the parent compound remaining after each time point, Plots of time (x-axis) vs. the natural logarithm of percent parent remaining (y-axis) were subsequently constructed to determine the slope. Finally, the aqueous stability was evaluated using the following equation: […]
The HPLC conditions were as follows: injection volume, 1 μL; column temperature: 40° C.; detector: 254 nm; stationary phase: Zorbax Eclipse XDB-C18 (4.6×150 mm, 5 μm); flow rate: 1 mL/min; mobile phase: 80-95% acetonitrile in H2O (0.1% formic acid).

Plasma stability assay = type: in vitro ADME; conditions: human plasma, 37° C., read-out: Human plasma t1/2
Description: (§1) 3 μM test compound was incubated in Human or Mouse plasma (BioIVT) at 37° C. with aliquots (100 μL) removed at 0, 15, 30, 60, 120, and 240 minutes. Enzymatic activity was quenched at each time point with the addition of 200 μL of acetonitrile containing 2 μM internal standard (d5-7-ethoxy coumarin), immediately vortexed and centrifuged at 15,000 rpm for 25 min at 4° C. Supernatants were transferred to autosampler vials for LC-MS/MS analysis. LC-MS/MS analysis was performed using Agilent Infinity II 1260 HPLC coupled to a G6460C QQQ MS. Half-lives were determined by plotting ln of % test compound remaining versus time and performing linear regression to determine the slope. Slope=−k and t½=0.693/k for first order kinetics.

Aqueous solubility = conditions: water
GABAA α1β2γ2 = GABAA α1β2γ2 (Homo sapiens, UniProt P14867+P47870); assay: GABAA electrophysiology, PAM mode, SyncroPatch automated patch clamp; type: cell-based; conditions: for Emax: read-out: GABAA α1β2γ2 Maximum Potentiation
Description: (§2) The SyncroPatch assay is performed at room temperature. A fast application protocol is used, in which the ligand is rapidly applied and then removed from the cell. To test for PAM mode, the agonist (GABA EC20) is applied three times as a control and to show reproducibility, followed by a minimum 2-minute pre-incubation of client compound and then re-application of agonist (GABA EC20) in the presence of client compound. Finally, a saturating concentration of agonist is applied. A steady-state voltage pulse at −80 mV is applied throughout the assay. Compounds are prepared as 10 mM DMSO stocks.
(§3) Automated patch clamp-recordings are performed using the SyncroPatch 384i. The voltage protocol generation and data collection are performed with Patch Controller 384 V2.2.1 and Data Controller V2.3.0. The PAM activity is calculated using the following equation, [(Icomp/Ireference)−1], where Icomp is the current amplitude in the presence of the compound and Ireference is the current amplitude in the presence of GABA alone. This builds an activation concentration-response curve (CRC), where <0.2 represents no PAM activity and >0.2 represents PAM activity. If a “bell-shape curve” is observed at the higher concentrations, showing a reduction in activity in comparison to previous concentrations, then to allow for a more accurate curve fit, these concentrations are removed from the graphs where necessary and noted in the results table.

GABAA α4β3δ = GABAA α4β3δ (Homo sapiens, UniProt P28472+P48169); assay: as above; type: cell-based; conditions: for Emax: read-out: GABAA α4β3δ Maximum Potentiation; for selectivity for GABAA receptor containing the delta (δ) subunit compared to a GABAA receptor without it: α4β3δ vs α1β2γ2, in words
Description: as §2, §3

[2] = Microsomal stability assay; type: in vitro ADME; conditions: Human Liver Microsomes, 37° C., unit in cell hr (head: min), read-out: HLM t1/2
Description: as §1, with “Liver Microsomes (Xenotech)” for “or Mouse plasma (BioIVT)”, “[…])” for “μL)”, “0, 5, 10,” for “0,”, “15,” for “15, 30, 60, 120,”, “30” for “240”

GABAA α1β2γ2, sequence (P14867 28-456): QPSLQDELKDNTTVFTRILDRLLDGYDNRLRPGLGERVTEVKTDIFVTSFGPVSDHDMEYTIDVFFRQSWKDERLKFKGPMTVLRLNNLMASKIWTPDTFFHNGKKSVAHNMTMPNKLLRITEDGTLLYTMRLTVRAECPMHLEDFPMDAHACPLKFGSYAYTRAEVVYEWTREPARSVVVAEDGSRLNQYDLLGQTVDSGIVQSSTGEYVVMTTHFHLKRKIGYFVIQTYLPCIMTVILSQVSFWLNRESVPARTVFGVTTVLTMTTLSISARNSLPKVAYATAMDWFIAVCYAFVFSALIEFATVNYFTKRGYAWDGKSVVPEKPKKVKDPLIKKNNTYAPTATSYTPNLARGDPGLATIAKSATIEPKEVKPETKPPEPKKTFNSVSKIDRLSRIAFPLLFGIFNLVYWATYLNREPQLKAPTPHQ
GABAA α1β2γ2, sequence (P47870 25-512 limits assumed): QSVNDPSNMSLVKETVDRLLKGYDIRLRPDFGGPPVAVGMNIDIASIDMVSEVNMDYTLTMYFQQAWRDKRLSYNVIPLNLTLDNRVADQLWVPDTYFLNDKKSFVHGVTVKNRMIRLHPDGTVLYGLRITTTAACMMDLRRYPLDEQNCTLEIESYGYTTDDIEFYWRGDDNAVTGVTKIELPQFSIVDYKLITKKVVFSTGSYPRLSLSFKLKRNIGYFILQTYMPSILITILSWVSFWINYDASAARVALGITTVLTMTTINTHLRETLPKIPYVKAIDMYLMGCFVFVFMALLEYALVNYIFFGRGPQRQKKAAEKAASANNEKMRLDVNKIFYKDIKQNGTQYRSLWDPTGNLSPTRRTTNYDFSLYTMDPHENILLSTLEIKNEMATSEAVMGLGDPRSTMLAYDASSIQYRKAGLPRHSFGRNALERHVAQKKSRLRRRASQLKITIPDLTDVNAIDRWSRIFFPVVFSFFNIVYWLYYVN
GABAA α1β2γ2, sequence (P18507 40-475 partner): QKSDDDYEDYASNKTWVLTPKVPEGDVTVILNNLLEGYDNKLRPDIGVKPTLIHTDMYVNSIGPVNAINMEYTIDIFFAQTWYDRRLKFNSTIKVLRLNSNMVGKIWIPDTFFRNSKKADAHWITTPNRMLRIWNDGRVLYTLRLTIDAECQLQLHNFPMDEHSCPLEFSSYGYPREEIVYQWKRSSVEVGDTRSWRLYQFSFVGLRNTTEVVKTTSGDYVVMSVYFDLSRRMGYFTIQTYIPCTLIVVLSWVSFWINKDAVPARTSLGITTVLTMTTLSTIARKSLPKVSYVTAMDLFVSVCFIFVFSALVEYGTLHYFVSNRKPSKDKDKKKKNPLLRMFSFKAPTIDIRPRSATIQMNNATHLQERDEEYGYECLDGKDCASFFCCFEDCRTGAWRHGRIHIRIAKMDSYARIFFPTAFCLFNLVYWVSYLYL
GABAA α4β3δ, sequence (P48169 36-554): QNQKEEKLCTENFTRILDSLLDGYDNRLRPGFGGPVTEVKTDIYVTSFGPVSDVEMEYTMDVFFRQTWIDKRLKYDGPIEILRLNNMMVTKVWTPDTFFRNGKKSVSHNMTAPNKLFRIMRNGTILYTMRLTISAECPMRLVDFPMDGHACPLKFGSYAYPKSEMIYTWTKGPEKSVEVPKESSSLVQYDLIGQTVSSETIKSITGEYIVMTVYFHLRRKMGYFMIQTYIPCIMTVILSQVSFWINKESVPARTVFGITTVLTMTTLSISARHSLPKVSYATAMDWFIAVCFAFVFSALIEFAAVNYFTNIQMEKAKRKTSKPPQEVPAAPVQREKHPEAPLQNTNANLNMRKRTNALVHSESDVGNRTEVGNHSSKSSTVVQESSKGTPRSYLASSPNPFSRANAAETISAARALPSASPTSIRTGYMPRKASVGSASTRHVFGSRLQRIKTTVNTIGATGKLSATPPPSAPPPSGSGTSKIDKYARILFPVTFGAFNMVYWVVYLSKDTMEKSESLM
GABAA α4β3δ, sequence (P28472 26-473): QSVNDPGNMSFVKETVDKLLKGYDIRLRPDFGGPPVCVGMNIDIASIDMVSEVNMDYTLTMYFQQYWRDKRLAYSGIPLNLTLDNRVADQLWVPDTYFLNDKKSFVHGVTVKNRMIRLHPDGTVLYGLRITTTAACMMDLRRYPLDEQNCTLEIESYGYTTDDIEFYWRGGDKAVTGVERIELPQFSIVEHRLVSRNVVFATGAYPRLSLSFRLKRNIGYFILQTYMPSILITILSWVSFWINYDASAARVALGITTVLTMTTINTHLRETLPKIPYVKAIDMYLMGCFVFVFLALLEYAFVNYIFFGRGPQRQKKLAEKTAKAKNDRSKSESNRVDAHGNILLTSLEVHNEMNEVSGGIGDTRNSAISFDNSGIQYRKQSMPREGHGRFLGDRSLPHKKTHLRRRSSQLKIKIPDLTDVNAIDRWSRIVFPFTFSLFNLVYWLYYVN
GABAA α4β3δ, sequence (O14764 17-452 partner limits assumed): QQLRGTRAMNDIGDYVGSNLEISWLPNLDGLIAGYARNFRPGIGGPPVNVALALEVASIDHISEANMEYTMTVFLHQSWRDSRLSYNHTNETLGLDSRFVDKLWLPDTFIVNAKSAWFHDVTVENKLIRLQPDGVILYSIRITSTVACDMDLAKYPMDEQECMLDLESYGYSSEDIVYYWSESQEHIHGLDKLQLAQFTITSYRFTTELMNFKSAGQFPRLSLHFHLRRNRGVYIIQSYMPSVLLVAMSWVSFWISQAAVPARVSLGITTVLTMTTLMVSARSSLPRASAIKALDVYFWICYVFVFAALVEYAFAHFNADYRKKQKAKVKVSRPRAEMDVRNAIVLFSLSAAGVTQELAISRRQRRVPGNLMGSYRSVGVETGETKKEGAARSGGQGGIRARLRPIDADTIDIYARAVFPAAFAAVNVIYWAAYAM

Row | SMILES | remaining at 2 h [1] [%] | half-life at 3 µM (Plasma stability assay) [min] | solubility (Aqueous solubility) [µM] | EC50 (GABAA α1β2γ2) [nM] | EC50 (GABAA α4β3δ) [nM] | other results
1 | CNCCN(C(=O)O/N=C(\C)[C@H]1CC[C@H]2[C@@H]3CCC4C[C@](C)(O)CC[C@]4(C)[C@H]3CC[C@]12C)C1CCC1.Cl (stereo partly drawn) [GP-GAN- 005 (20c), (E)-1-((3R,8R,9S,10S,13S,14S,17S)-3-hydroxy-3,10,13-trimethylhexadecahydro-1H-cyclopenta[a]phenanthren-17-yl)ethan-1-one O-(cyclobutyl(2-(methylamino)ethyl)carbamoyl) oxime hydrochloride] | 43 | 39 | > 750 | – | – | –
2 | C/C(=N\O)[C@H]1CC[C@H]2[C@@H]3CC[C@@H]4C[C@](C)(O)CC[C@@H]4[C@H]3CC[C@]12C [LEH- NEURO- 007 (30), (E)-1-((3R,5R,8R,9R,10S,13S,14S,17S)-3-hydroxy-3,13-dimethylhexadecahydro-1H-cyclopenta[a]phenanthren-17-yl)ethan-1-one oxime] | – | – | – | 692 | 383 | half-life at 3 µM (Plasma stability assay; unit in cell hr (head: min)): > 240 min; Emax (GABAA α1β2γ2): 121%; Emax (GABAA α4β3δ): 510%; selectivity for GABAA receptor containing the delta (δ) subunit compared to a GABAA receptor without it (GABAA α4β3δ): selectively potentiate
3 | CNCCN(C(=O)O/N=C(\C)[C@H]1CC[C@H]2[C@@H]3CCC4C[C@](C)(O)CC[C@]4(C)[C@H]3CC[C@]12C)C(C)C.Cl (stereo partly drawn) [GP-GAN- 004 (20d), (E)-1-((3R,8R,9S,10S,13S,14S,17S)-3-hydroxy-3,10,13-trimethylhexadecahydro-1H-cyclopenta[a]phenanthren-17-yl)ethan-1-one O-(isopropyl(2-(methylamino)ethyl)carbamoyl) oxime hydrochloride] | 52 | 28 | > 750 | – | – | –
4 | CC(=O)[C@H]1CC[C@H]2[C@@H]3CC[C@H]4C[C@](C)(O)CC[C@]4(C)[C@H]3CC[C@]12C [Ganaxalone, Ganaxolone, reference compound] | – | – | – | 540 | 879 | –
5 | C/C(=N\OC(=O)N(C)C[C@@H]1CCCN1)[C@H]1CC[C@H]2[C@@H]3CCC4C[C@](C)(O)CC[C@]4(C)[C@H]3CC[C@]12C.Cl (stereo partly drawn) [GP-GAN- 003 (20b), (E)-1-((3R,8R,9S,10S,13S,14S,17S)-3-hydroxy-3,10,13-trimethylhexadecahydro-1H-cyclopenta[a]phenanthren-17-yl)ethan-1-one O-(methyl(((S)-pyrrolidin-2-yl)methyl)carbamoyl) oxime hydrochloride] | 10 | 6 | > 750 | – | – | –
6 | C/C(=N\O)[C@H]1CC[C@H]2[C@@H]3CC[C@H]4C[C@](C)(O)CC[C@]4(C)[C@H]3CC[C@]12C [GP-GAN- 001 (10), (E)-1-((3R,8R,9S,10S,13S,14S,17S)-3-hydroxy-3,10,13-trimethylhexadecahydro-1H-cyclopenta[a]phenanthren-17-yl)ethan-1-one oxime] | – | – | – | 1620 | 1000 | half-life at 3 µM [2]: > 120 min; half-life at 3 µM (Plasma stability assay; unit in cell hr (head: min)): > 240 min; Emax (GABAA α1β2γ2): 133%; Emax (GABAA α4β3δ): 533%
7 | C/C(=N\OCOP(=O)(O)O)[C@H]1CC[C@H]2[C@@H]3CCC4C[C@](C)(O)CC[C@]4(C)[C@H]3CC[C@]12C (stereo partly drawn) [GP-GAN- 007 (22), 1,3-Dihydroxy-2-(hydroxymethyl)propan-2-aminium ((((E)-1-((3R,8R,9S,10S,13S,14S,17S)-3-hydroxy-3,10,13-trimethylhexadecahydro-1H-cyclopenta[a]phenanthren-17-yl)ethylidene)amino)oxy)methyl hydrogen phosphate] | – | – | > 1000 | – | – | –
8 | C/C(=N\O)[C@@]1(F)CC[C@H]2[C@@H]3CC[C@H]4C[C@](C)(O)CC[C@]4(C)[C@H]3CC[C@@]21C [GP-GAN- 006 (15), (E)-1-((3R,8R,9S,10S,13S,14S,17R)-17-fluoro-3-hydroxy-3,10,13-trimethylhexadecahydro-1H-cyclopenta[a]phenanthren-17-yl)ethan-1-one oxime] | 61 | 3 | – | – | – | –
9 | CNCCN(C)C(=O)O/N=C(\C)[C@H]1CC[C@H]2[C@@H]3CCC4C[C@](C)(O)CC[C@]4(C)[C@H]3CC[C@]12C.Cl (stereo partly drawn) [GP-GAN- 002 (20a), (E)-1-((3R,8R,9S,10S,13S,14S,17S)-3-hydroxy-3,10,13-trimethylhexadecahydro-1H-cyclopenta[a]phenanthren-17-yl)ethan-1-one O-(methyl(2-(methylamino)ethyl)carbamoyl) oxime hydrochloride] | 66 | 55 | > 750 | – | – | –
10 | C/C(=N\O)[C@H]1CC[C@H]2[C@@H]3CCC4C[C@](C)(O)CC[C@]4(C)[C@H]3CC[C@]12C (stereo partly drawn) [compound 10] | – | – | – | – | – | selectivity for GABAA receptor containing the delta (δ) subunit compared to a GABAA receptor without it (GABAA α4β3δ): selectively potentiate
